Test results published in ChEMBL document CHEMBL1201862, “PubChem BioAssay data set” (2004).
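How tested: cells in 96-well plates exposed to compound for 48 hours at five concentrations. At the GI50, growth is halved.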 Activity calls are given as the source filed them. Rule as the data show it: active = GI50 up to about 1.1 µM and inactive = higher.

Legend:
Assay in all cases: NCI anticancer screen, dose series, 48 h
UO-31 = tested on: UO-31
RPMI-8226 = tested on: RPMI-8226
LOX IMVI = tested on: LOX IMVI
HCC 2998 = tested on: HCC 2998
T47D = tested on: T47D
MDA-N = tested on: MDA-N
Hs-578T = tested on: Hs-578T
SN12C = tested on: SN12C
BT-549 = tested on: BT-549
HOP-92 = tested on: HOP-92
EKVX = tested on: EKVX
786-0 = tested on: 786-0
SNB-19 = tested on: SNB-19
UACC-62 = tested on: UACC-62
NCI-H23 = tested on: NCI-H23
NCI-H226 = tested on: NCI-H226
COLO 205 = tested on: COLO 205
M14 = tested on: M14
HCT-15 = tested on: HCT-15
U-251 = tested on: U-251
KM12 = tested on: KM12
SK-MEL-2 = tested on: SK-MEL-2
SF-268 = tested on: SF-268
MDA-MB-435 = tested on: MDA-MB-435
NCI/ADR-RES = tested on: NCI/ADR-RES
HL-60 = tested on: HL-60
OVCAR-8 = tested on: OVCAR-8
UACC-257 = tested on: UACC-257
HCT-116 = tested on: HCT-116
HOP-62 = tested on: HOP-62
SK-OV-3 = tested on: SK-OV-3
SK-MEL-5 = tested on: SK-MEL-5
DU-145 = tested on: DU-145
SW-620 = tested on: SW-620
MDA-MB-231 = tested on: MDA-MB-231
SF-539 = tested on: SF-539
MCF7 = tested on: MCF7
ACHN = tested on: ACHN
HT-29 = tested on: HT-29
SF-295 = tested on: SF-295
NCI-H460 = tested on: NCI-H460
A549 = tested on: A549
IGROV-1 = tested on: IGROV-1
MOLT-4 = tested on: MOLT-4
PC-3 = tested on: PC-3
OVCAR-5 = tested on: OVCAR-5
A498 = tested on: A498
K562 = tested on: K562
NCI-H522 = tested on: NCI-H522
CCRF-CEM = tested on: CCRF-CEM
TK-10 = tested on: TK-10
OVCAR-3 = tested on: OVCAR-3
SR = tested on: SR
Malme-3M = tested on: Malme-3M
RXF 393 = tested on: RXF 393
SNB-75 = tested on: SNB-75
CAKI-1 = tested on: CAKI-1
OVCAR-4 = tested on: OVCAR-4
SK-MEL-28 = tested on: SK-MEL-28

## CCCCCC(C)(C)CCC(=O)OC1OC(COC2OC(COC3OC(CO)C(O)C(O)C3O)C(O)C(O)C2O)C(O)C(O)C1O (stereo not drawn)
UO-31
  GI50: > 100 µM (inactive)
RPMI-8226
  GI50: > 100 µM (inactive)
LOX IMVI
  GI50: > 100 µM (inactive)
HCC 2998
  GI50: > 100 µM (inactive)
T47D
  GI50: > 100 µM (inactive)
MDA-N
  GI50: > 100 µM (inactive)
Hs-578T
  GI50: > 100 µM (inactive)
SN12C
  GI50: > 100 µM (inactive)
BT-549
  GI50: > 100 µM (inactive)
HOP-92
  GI50: > 100 µM (inactive)
EKVX
  GI50: > 100 µM (inactive)
786-0
  GI50: > 100 µM (inactive)
SNB-19
  GI50: > 100 µM (inactive)
UACC-62
  GI50: > 100 µM (inactive)
NCI-H23
  GI50: > 100 µM (inactive)
NCI-H226
  GI50: > 100 µM (inactive)
COLO 205
  GI50: > 100 µM (inactive)
M14
  GI50: > 100 µM (inactive)
HCT-15
  GI50: > 100 µM
U-251
  GI50: > 100 µM (inactive)
KM12
  GI50: > 100 µM (inactive)
SK-MEL-2
  GI50: > 100 µM (inactive)
SF-268
  GI50: > 100 µM (inactive)
MDA-MB-435
  GI50: > 100 µM (inactive)
NCI/ADR-RES
  GI50: > 100 µM (inactive)
HL-60
  GI50: > 100 µM (inactive)
OVCAR-8
  GI50: > 100 µM (inactive)
UACC-257
  GI50: > 100 µM (inactive)
HCT-116
  GI50: > 100 µM (inactive)
HOP-62
  GI50: > 100 µM (inactive)
SK-OV-3
  GI50: > 100 µM (inactive)
SK-MEL-5
  GI50: > 100 µM (inactive)
DU-145
  GI50: > 100 µM (inactive)
SW-620
  GI50: > 100 µM (inactive)
MDA-MB-231
  GI50: > 100 µM (inactive)
SF-539
  GI50: > 100 µM (inactive)
MCF7
  GI50: > 100 µM (inactive)
ACHN
  GI50: > 100 µM (inactive)
HT-29
  GI50: > 100 µM (inactive)
SF-295
  GI50: > 100 µM (inactive)
NCI-H460
  GI50: > 100 µM (inactive)
A549
  GI50: > 100 µM (inactive)
IGROV-1
  GI50: > 100 µM (inactive)
MOLT-4
  GI50: > 100 µM (inactive)
PC-3
  GI50: > 100 µM (inactive)
OVCAR-5
  GI50: > 100 µM (inactive)
A498
  GI50: > 100 µM (inactive)
K562
  GI50: > 100 µM (inactive)
NCI-H522
  GI50: > 100 µM (inactive)
CCRF-CEM
  GI50: > 100 µM (inactive)
TK-10
  GI50: > 100 µM (inactive)
OVCAR-3
  GI50: > 100 µM (inactive)
SR
  GI50: > 100 µM (inactive)
Malme-3M
  GI50: > 100 µM (inactive)
RXF 393
  GI50: 6.17 µM (inactive)

## CCN1CCC(CNC(=O)c2ccc(N)cc2)N1CC (stereo not drawn)
UO-31
  GI50: > 100 µM (inactive)
RPMI-8226
  GI50: > 100 µM (inactive)
HCC 2998
  GI50: > 100 µM (inactive)
T47D
  GI50: > 100 µM (inactive)
MDA-N
  GI50: > 100 µM (inactive)
Hs-578T
  GI50: > 100 µM (inactive)
SN12C
  GI50: > 100 µM (inactive)
BT-549
  GI50: > 100 µM (inactive)
HOP-92
  GI50: > 100 µM (inactive)
SNB-75
  GI50: > 100 µM (inactive)
EKVX
  GI50: > 100 µM (inactive)
786-0
  GI50: > 100 µM (inactive)
SNB-19
  GI50: > 100 µM (inactive)
CAKI-1
  GI50: > 100 µM (inactive)
UACC-62
  GI50: > 100 µM (inactive)
NCI-H23
  GI50: > 100 µM (inactive)
NCI-H226
  GI50: > 100 µM (inactive)
COLO 205
  GI50: > 100 µM (inactive)
M14
  GI50: > 100 µM (inactive)
HCT-15
  GI50: > 100 µM
U-251
  GI50: > 100 µM (inactive)
KM12
  GI50: > 100 µM (inactive)
SK-MEL-2
  GI50: > 100 µM (inactive)
SF-268
  GI50: > 100 µM (inactive)
MDA-MB-435
  GI50: > 100 µM (inactive)
NCI/ADR-RES
  GI50: > 100 µM (inactive)
HL-60
  GI50: > 100 µM (inactive)
OVCAR-8
  GI50: > 100 µM (inactive)
UACC-257
  GI50: > 100 µM (inactive)
HCT-116
  GI50: > 100 µM (inactive)
HOP-62
  GI50: > 100 µM (inactive)
SK-OV-3
  GI50: > 100 µM (inactive)
SK-MEL-5
  GI50: > 100 µM (inactive)
DU-145
  GI50: > 100 µM (inactive)
OVCAR-4
  GI50: > 100 µM (inactive)
SW-620
  GI50: > 100 µM (inactive)
SK-MEL-28
  GI50: > 100 µM (inactive)
MDA-MB-231
  GI50: > 100 µM (inactive)
SF-539
  GI50: > 100 µM (inactive)
MCF7
  GI50: > 100 µM (inactive)
ACHN
  GI50: > 100 µM (inactive)
HT-29
  GI50: > 100 µM (inactive)
SF-295
  GI50: > 100 µM (inactive)
NCI-H460
  GI50: > 100 µM (inactive)
A549
  GI50: > 100 µM (inactive)
IGROV-1
  GI50: > 100 µM (inactive)
MOLT-4
  GI50: > 100 µM (inactive)
PC-3
  GI50: > 100 µM (inactive)
OVCAR-5
  GI50: > 100 µM (inactive)
A498
  GI50: > 100 µM (inactive)
K562
  GI50: > 100 µM (inactive)
NCI-H522
  GI50: > 100 µM (inactive)
CCRF-CEM
  GI50: > 100 µM (inactive)
TK-10
  GI50: > 100 µM (inactive)
OVCAR-3
  GI50: > 100 µM (inactive)
SR
  GI50: > 100 µM (inactive)
Malme-3M
  GI50: > 100 µM (inactive)
RXF 393
  GI50: > 100 µM (inactive)
